Counter-ions that a name gives are not always drawn.
What was measured:
[1] = target: PRMT5 (Homo sapiens (Human), UniProt O14744); assay: Inhibitory activity against PRMT5 enzyme by radioisotopic method; format: biochemical; conditions: PRMT5 5 nM, [3H]-SAM 0.3 μM, polypeptide substrate GL-27 100 nM, room temperature
Procedure, shortened: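 PRMT5 (5 nM) preincubated with compound and [3H]-SAM (0.3 μM) 60 min at RT in Tris pH 8.0/Tween-20/DTT, 1% DMSO; biotinylated GL-27 peptide (100 nM) added, 120 min RT, stopped with cold SAM. Peptide captured on streptavidin FlashPlate, CPM counted; IC50 from four-parameter fit of % inhibition.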

[2] = test system: Xenograft models of small cell lung cancer (SCLC), non-small cell lung cancer (NSCLC), acute myeloid leukemia (AML) and non-Hodgkin's lymphoma; conditions: cited from earlier work

Sequence of PRMT5 (O14744 whole entry): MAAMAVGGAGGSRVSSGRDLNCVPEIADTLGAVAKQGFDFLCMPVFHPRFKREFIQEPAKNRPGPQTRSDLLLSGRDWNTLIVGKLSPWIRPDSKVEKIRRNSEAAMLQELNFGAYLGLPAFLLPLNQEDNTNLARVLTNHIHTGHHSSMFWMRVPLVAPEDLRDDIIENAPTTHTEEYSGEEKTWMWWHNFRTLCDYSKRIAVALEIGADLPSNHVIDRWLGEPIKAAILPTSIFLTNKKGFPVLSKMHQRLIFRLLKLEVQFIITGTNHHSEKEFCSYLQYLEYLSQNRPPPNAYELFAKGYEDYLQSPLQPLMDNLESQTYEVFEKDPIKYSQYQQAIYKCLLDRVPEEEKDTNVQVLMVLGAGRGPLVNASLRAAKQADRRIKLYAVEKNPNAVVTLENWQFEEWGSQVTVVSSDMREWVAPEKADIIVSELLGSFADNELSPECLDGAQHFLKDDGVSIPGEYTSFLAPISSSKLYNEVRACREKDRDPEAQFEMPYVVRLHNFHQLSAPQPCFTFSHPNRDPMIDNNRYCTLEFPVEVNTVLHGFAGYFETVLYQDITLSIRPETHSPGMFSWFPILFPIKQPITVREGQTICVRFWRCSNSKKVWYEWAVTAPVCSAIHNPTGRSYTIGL
Sequence of PRMT5 (Q9BQA1 whole entry partner): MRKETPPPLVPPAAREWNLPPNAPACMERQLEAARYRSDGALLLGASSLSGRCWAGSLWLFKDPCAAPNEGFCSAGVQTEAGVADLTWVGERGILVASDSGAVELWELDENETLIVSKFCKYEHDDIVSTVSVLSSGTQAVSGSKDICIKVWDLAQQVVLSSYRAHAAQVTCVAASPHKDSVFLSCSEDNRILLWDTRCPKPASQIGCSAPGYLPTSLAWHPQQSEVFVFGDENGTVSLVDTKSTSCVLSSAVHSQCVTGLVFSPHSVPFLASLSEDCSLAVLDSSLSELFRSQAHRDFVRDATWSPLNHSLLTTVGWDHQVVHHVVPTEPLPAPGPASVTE

| IC50 [1] | SMILES | tumor growth inhibited [2] |
| --- | --- | --- |
| < 100 nM | CC(=O)N1CCC(Nc2cc(C(=O)N3CC[C@@H](N4CCc5ccccc5C4)[C@H](O)C3)nc(OC3CCC(F)(F)CC3)n2)CC1 [Example 154, 1-(4-((2-((4,4-difluorocyclohexyl)oxy)-6-((3R,4R)-4-(3,4-dihydroisoquinolin-2(1H)-yl)-3-hydroxypiperidine-1-carbonyl)pyrimidin-4-yl)amino)-piperidin-1-yl)ethan-1-one] | – |
| < 100 nM | CCC(CC)Oc1nc(NC2CCN(C(=O)C3CC(F)(F)C3)CC2)cc(C(=O)N2CC[C@@H](N3CCc4ccccc4C3)[C@H](O)C2)n1 [Example 156, (6-((1-(3,3-difluorocyclobutane-1-carbonyl)piperidin-4-yl)amino)-2-(pentan-3-oxy)pyrimidin-4-yl)((3R,4R)-4-(3,4-dihydroisoquinolin-2(1H)-yl)-3-hydroxy-piperidin-1-yl)ketone] | – |
| < 100 nM | CC(=O)N1CCC(Nc2cc(C(=O)N3CC[C@@H](N4CCc5ccccc5C4)[C@H](O)C3)nc([S+]([O-])C(C)C)n2)CC1 (stereo partly drawn) [Example 157, 1-(4-((6-((3R,4R)-4-(3,4-dihydroisoquinolin-2(1H)-yl)-3-hydroxypiperidine-1-carbonyl)-2-(isopropylsulfinyl)pyrimidin-4-yl)amino)piperidin-1-yl)ethan-1-one] | – |
| – | Nc1nc2cc(CC[C@H]3C[C@@H](n4ccc5c(N)ncnc54)[C@H](O)[C@@H]3O)ccc2cc1Br [JNJ-64619178] | up to 99% |

| SMILES | IC50 [1] | tumor growth inhibited [2] |
| --- | --- | --- |
| CC(=O)N1CCC(Nc2cc(C(=O)N3CC[C@@H](N4CCc5ccccc5C4)[C@H](O)C3)nc(SC(C)C)n2)CC1 [Example 155, 1-(4-((6-((3R,4R)-4-(3,4-dihydroisoquinolin-2(1H)-yl)-3-hydroxy-piperidine-1-carbonyl)-2-(isopropylthio)pyrimidin-4-yl)amino)piperidin-1-yl)ethan-1-one hydrochloride] | < 100 nM | – |
